Laboratory results as given in patent US20260053932A1, “COMPOUNDS AND METHODS FOR THE TARGETED DEGRADATION OF ANDROGEN RECEPTOR AND ASSOCIATED METHODS OF USE” (Arvinas Operations, Inc., priority 2020, published 2026).
Read-outs that look alike come from different tables or passages of the source.

System: androgen receptor (AR) in LNCaP and/or VCaP cells
Experiment: Androgen Receptor ELISA assay (AR degradation)
Type: cell-based
In short: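 VCaP cells grown ≥3 days, then treated 5 h with compound in media containing 1 nM R1881 (10× stock). Cells lysed and AR quantified by sandwich ELISA (mouse AR detection Ab, HRP anti-mouse, TMB). DC50 and Dmax derived from AR degradation.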

[1] = degradation of AR ELISA in LNCaP and/or VCaP cells, Table 2C, read-out: DC50 Code*
[2] = LNCaP and/or VCaP cells, 5 hours incubation, media with R1881, read-out: DC50 Code* (degradation of AR ELISA)

Compound | DC50 [1] [nM] | DC50 [2] [nM]
COc1cc(O[C@H]2C[C@H](OC3CCN(c4ccc(C(=O)N[C@H]5C(C)(C)[C@H](Oc6cc(C)c(C#N)c(C)c6)C5(C)C)cc4)CC3)C2)cc2c1C(=O)N(C1CCC(=O)NC1=O)C2=O (mixture of isomers) [compound 197, rac-N-((1r,3r)-3-(4-cyano-3,5-dimethylphenoxy)-2,2,4,4-tetramethylcyclobutyl)-4-(4-((1r,3r)-3-((2-(2,6-dioxopiperidin-3-yl)-7-methoxy-1,3-dioxoisoindolin-5-yl)oxy)cyclobutoxy)piperidin-1-yl)benzamide] | < 1 | 
CC1(C)[C@H](NC(=O)c2ccc(N3CCC(CCN4CC5CN(c6ccc7c(c6)C(=O)N(C6CCC(=O)NC6=O)C7=O)CC5C4)C3)cc2)C(C)(C)[C@H]1Oc1ccc(C#N)c(Cl)c1 (stereo partly drawn) [compound 111, N-((1r,3r)-3-(3-chloro-4-cyanophenoxy)-2,2,4,4-tetramethylcyclobutyl)-4-(3-(2-(5-(2-(2,6-dioxopiperidin-3-yl)-1,3-dioxoisoindolin-5-yl)hexahydropyrrolo[3,4-c]pyrrol-2(1H)-yl)ethyl)pyrrolidin-1-yl)benzamide] | < 1 | 
COc1cc(O[C@H]2CC[C@H](NC(=O)c3cnc(N4CC5(CC(CN(C(C)C)[C@H]6C[C@H](Oc7ccc8c(c7)C(=O)N(C7CCC(=O)NC7=O)C8=O)C6)C5)C4)nc3)CC2)ccc1C#N (stereo partly drawn) [Compound 36, N-((1r,4r)-4-(4-cyano-3-methoxyphenoxy)cyclohexyl)-2-(6-((((1r,3r)-3-((2-(2,6-dioxopiperidin-3-yl)-1,3-dioxoisoindolin-5-yl)oxy)cyclobutyl) (isopropyl)amino)methyl)-2-azaspiro[3.3]heptan-2-yl)pyrimidine-5-carboxamide] |  | < 1
CC(C)N(CC1CCN(c2cnc(C(=O)N[C@H]3CC[C@H](Oc4ccc(C#N)c(Cl)c4)CC3)cn2)CC1)[C@H]1C[C@H](Oc2ccc3c(c2)C(=O)N(C2CCC(=O)NC2=O)C32CC2)C1 (stereo partly drawn) [Compound 73, N-((1r,4r)-4-(3-chloro-4-cyanophenoxy)cyclohexyl)-5-(4-((((1r,3r)-3-((2′-(2,6-dioxopiperidin-3-yl)-3′-oxospiro[cyclopropane-1,1′-isoindolin]-5′-yl)oxy)cyclobutyl) (isopropyl)amino)methyl)piperidin-1-yl)pyrazine-2-carboxamide] |  | > 100
Cc1cc(O[C@H]2C(C)(C)[C@H](NC(=O)c3ccc(N4CCC(CN5CCOC[C@H]5CCOc5ccc6c(c5)C(=O)N(C5CCC(=O)NC5=O)C6=O)CC4)cc3)C2(C)C)cc(C)c1C#N (stereo partly drawn) [compound 201, N-((1r,3R)-3-(4-cyano-3,5-dimethylphenoxy)-2,2,4,4-tetramethylcyclobutyl)-4-(4-(((3R)-3-(2-((2-(2,6-dioxopiperidin-3-yl)-1,3-dioxoisoindolin-5-yl)oxy)ethyl)morpholino)methyl)piperidin-1-yl)benzamide] | < 1 | 
Cc1cc(O[C@H]2C(C)(C)[C@H](NC(=O)c3ccc(N4CCO[C@H](CN5CCN(c6ccc7c(c6)C(=O)N(C6CCC(=O)NC6=O)C7=O)CC5)C4)cc3)C2(C)C)cc(C)c1C#N (stereo partly drawn) [compound 167, N-((1r,3R)-3-(4-cyano-3,5-dimethylphenoxy)-2,2,4,4-tetramethylcyclobutyl)-4-((2R)-2-((4-(2-(2,6-dioxopiperidin-3-yl)-1,3-dioxoisoindolin-5-yl)piperazin-1-yl)methyl)morpholino) benzamide] | < 1 | 
COc1cc(O[C@H]2C[C@H](N(C)CCOC3CCN(c4ccc(C(=O)N[C@H]5C(C)(C)[C@H](Oc6cc(C)c(C#N)c(C)c6)C5(C)C)cc4)CC3)C2)cc2c1C(=O)N(C1CCC(=O)NC1=O)C2=O (stereo partly drawn) [compound 164, N-((1r,3r)-3-(4-cyano-3,5-dimethylphenoxy)-2,2,4,4-tetramethylcyclobutyl)-4-(4-(2-(((1r,3r)-3-((2-(2,6-dioxopiperidin-3-yl)-7-methoxy-1,3-dioxoisoindolin-5-yl)oxy)cyclobutyl) (methyl)amino)ethoxy)piperidin-1-yl)benzamide] | < 1 | 

The next lines start with the values.

DC50 [1] [nM] | DC50 [2] [nM] | Compound
< 1 |  | Cc1cc(O[C@H]2C(C)(C)[C@H](NC(=O)c3cnc(N4CC5(CC(CN(C(C)C)[C@H]6C[C@H](Oc7ccc8c(c7)C(=O)N(C7CCC(=O)NC7=O)C8=O)C6)C5)C4)cn3)C2(C)C)cc(C)c1C#N (stereo partly drawn) [compound 175, N-((1r,3r)-3-(4-cyano-3,5-dimethylphenoxy)-2,2,4,4-tetramethylcyclobutyl)-5-(6-((((1r,3r)-3-((2-(2,6-dioxopiperidin-3-yl)-1,3-dioxoisoindolin-5-yl)oxy)cyclobutyl) (isopropyl)amino)methyl)-2-azaspiro[3.3]heptan-2-yl)pyrazine-2-carboxamide]
< 1 |  | Cc1cc(O[C@H]2C(C)(C)[C@H](NC(=O)c3ccc(N4CCC(OCCN(C)[C@H]5C[C@H](Oc6ccc7c(c6)C(=O)N(C6CCC(=O)NC6=O)C7=O)C5)CC4)cc3)C2(C)C)cc(C)c1C#N (mixture of isomers) [compound 150, rac-N-((1r,3r)-3-(4-cyano-3,5-dimethylphenoxy)-2,2,4,4-tetramethylcyclobutyl)-4-(4-(2-(((1r,3r)-3-((2-(2,6-dioxopiperidin-3-yl)-1,3-dioxoisoindolin-5-yl)oxy)cyclobutyl) (methyl)amino)ethoxy)piperidin-1-yl)benzamide]
< 1 |  | Cc1cc(O[C@H]2C(C)(C)[C@H](NC(=O)c3ccc(N4CCC(CN(CCN5CCOCC5)[C@H]5C[C@H](Oc6ccc7c(c6)C(=O)N(C6CCC(=O)NC6=O)C7=O)C5)CC4)cc3)C2(C)C)cc(C)c1C#N (mixture of isomers) [compound 188, rac-N-((1r,3r)-3-(4-cyano-3,5-dimethylphenoxy)-2,2,4,4-tetramethylcyclobutyl)-4-(4-((((1r,3r)-3-((2-(2,6-dioxopiperidin-3-yl)-1,3-dioxoisoindolin-5-yl)oxy)cyclobutyl)(2-morpholinoethyl)amino)methyl)piperidin-1-yl)benzamide]
< 1 |  | CCOc1cc(O[C@H]2C(C)(C)[C@H](NC(=O)c3ccc(N4CC(CN(C(C)C)[C@H]5C[C@H](Oc6ccc7c(c6)C(=O)N(C6CCC(=O)NC6=O)C7=O)C5)C4)cc3)C2(C)C)ccc1C#N (stereo partly drawn) [compound 217, N-((1r,3r)-3-(4-cyano-3-ethoxyphenoxy)-2,2,4,4-tetramethylcyclobutyl)-4-(3-((((1r,3r)-3-((2-(2,6-dioxopiperidin-3-yl)-1,3-dioxoisoindolin-5-yl)oxy)cyclobutyl) (isopropyl)amino)methyl)azetidin-1-yl)benzamide]
< 1 |  | Cc1cc(O[C@H]2C(C)(C)[C@H](NC(=O)c3ccc(N4CC5(CC(CN(C(C)C)[C@H]6C[C@H](Oc7ccc8c(c7)C(=O)N(C7CCC(=O)NC7=O)C8=O)C6)C5)C4)nn3)C2(C)C)cc(C)c1C#N (stereo partly drawn) [compound 163, N-((1r,3r)-3-(4-cyano-3,5-dimethylphenoxy)-2,2,4,4-tetramethylcyclobutyl)-6-(6-((((1r,3r)-3-((2-(2,6-dioxopiperidin-3-yl)-1,3-dioxoisoindolin-5-yl)oxy)cyclobutyl) (isopropyl)amino)methyl)-2-azaspiro[3.3]heptan-2-yl)pyridazine-3-carboxamide]
